Test results: patent publication US20080114066A1, “Synergistic Effects Of Docosahexaenoic Acid (DHA) And Carotenoid Absorption Of Cognitive Function” (Trustees of Tufts College, priority 2005, published 2008)

Tests used:
macular pigment = test: Macular pigment optical density (MPOD), psychophysical method; assay type: in vivo, human; details: for Mean increase in total MPOD (change from baseline): 4 months of supplementation, area under the curve of 5 loci, mean ± se
Method: Women were randomly assigned to one of four groups: Control (n=10), DHA (n=14, DHA 800 mg/d), lutein (n=12, lutein 12 mg/d), and lutein+DHA (n=14, lutein 12 mg/d; DHA 800 mg/d) (C, D, L, and LD, respectively). The supplement type was randomized. Subjects visited the Jean Mayer USDA Human Nutrition Research Center on Aging at Tufts University on days that supplements were distributed and blood obtained (0 mo-baseline, 2 mo, and 4 mo). Subjects were instructed to take the supplement with a nutritional energy drink (8 oz., Boost®, Mead Johnson Nutritionals) but were otherwise asked to not alter their diets. The diet of each subject was monitored with food frequency questionnaires (Block G, et al., A data-based approach to diet questionnaire design and testing. Am J Epidemiol, 1986. 24: p. 453-469) completed at baseline, 2 months and 4 months to be sure that there were no confounding changes in dietary intake. All subjects completed at least two sets of cognitive and mood self-report tests, at the beginning of the study, then at the end of the study, after four months of supplementation, at the Schepens Eye Research Institute. Compliance was by monitored by interview, compliance calendars and capsule count. Both the subjects and the experimenter were masked to the experimental groups. Blood samples were collected at baseline, 2 months and 4 months, and serum was separated from red blood cells (800×g, 10 minutes). Aliquots of serum are stored at −70° C. until analyzed. At baseline and 2 months, a two month supply of placebo supplements, DHA (800 mg/d, DHASCO, Martek Biological Sciences), lutein (12 mg/d plus 0.5 mg zeaxanthin, Kemin Foods), or lutein+DHA (12 mg/d and 800 mg/d, respectively and nutritional energy drink was provided. At baseline and 4 months, subjects visited the Schepens Eye Research Institute (Boston, Mass.) for testing of MP optical density (MPOD) and an ophthalmic exam. There were two visits at each time point.
The method of assessing MPOD involves a three-channel Maxwellian view optical system and used a psycho physical method described by Hammond et al. (Hammond B. R., et al., Vision Res, 1996. 36: p. 2001-2012). […] MPOD was measured in two baseline sessions on separate days and in two sessions on separate days at the end of 4 months of supplementation.
Differences between cognitive and mood scores at baseline and after supplementation were tested by Student's t test for each treatment group. In the case of those variables where a significant change was found from baseline to end of study, correlations were calculated between age, education, serum levels of DHA and lutein, and test scores, for those test scores where the distribution was normal or near-normal. […]

[1] = test system: serum lipoproteins (VLDL, LDL, HDL); test: Serum cholesterol, lipoproteins and lipoprotein subfractions by NMR spectroscopy; assay type: in vivo, human; details: for Serum HDL concentration / Serum LDL concentration / Serum VLDL concentration / Serum total Cholesterol concentration: after 4 months of supplementation, mean ± se
Method: At study end (4 mo), serum was analyzed for total cholesterol, lipoproteins (VLDL, LDL, HDL) as well as lipoprotein subfractions using NMR spectroscopy (Otvos, J. D., Clin Lab, 2002. 48: p. 171-180). The NMR method employs the characteristic methyl group signals broadcast by lipoprotein subclasses of different size as the basis for their quantification. Each measurement includes the concentrations of 5 subclasses of HDL (larger numbers denoting larger subclasses), 3 subclasses of LDL and 6 subclasses of VLDL (V1-V6). Lipoprotein subclasses were grouped into large, intermediate and small subclasses. That is, large, intermediate, and small HDL were H5+H4, H3, and H2+H1, respectively. Large, intermediate and small LDL were L3, L2, and L1, respectively. And large, intermediate and small VLDL were V6+V5, V4+V3, and V2+V1, respectively.
Results are expressed as mean ±SE. Within each group, each subject was followed longitudinally and significant differences from baseline were measured using Student's paired t-test (Systat version10, Port Richmond, Calif. Group differences were measured using ANOVA followed by the Bonferroni post hoc test (Systat10).

[2] = Serum carotenoids (lutein, zeaxanthin) by HPLC; assay type: in vivo, human; details: after 2 and 4 months of supplementation
Method: (§1) Women were randomly assigned to one of four groups: Control (n=10), DHA (n=14, DHA 800 mg/d), lutein (n=12, lutein 12 mg/d), and lutein+DHA (n=14, lutein 12 mg/d; DHA 800 mg/d) (C, D, L, and LD, respectively). The supplement type was randomized. Subjects visited the Jean Mayer USDA Human Nutrition Research Center on Aging at Tufts University on days that supplements were distributed and blood obtained (0 mo-baseline, 2 mo, and 4 mo). Subjects were instructed to take the supplement with a nutritional energy drink (8 oz., Boost®, Mead Johnson Nutritionals) but were otherwise asked to not alter their diets. The diet of each subject was monitored with food frequency questionnaires (Block G, et al., A data-based approach to diet questionnaire design and testing. Am J Epidemiol, 1986. 24: p. 453-469) completed at baseline, 2 months and 4 months to be sure that there were no confounding changes in dietary intake. […] Compliance was by monitored by interview, compliance calendars and capsule count. […] Aliquots of serum are stored at −70° C. until analyzed. […]
(§2) Serum carotenoids were extracted and analyzed by HPLC using the method described by Yeum et al. (Yeum, K. J., et al., Am J Clin Nutr, 1996. 64(4): p. 594-602.). […]
(§3) Results are expressed as mean ±SE. […]

[3] = Serum DHA by gas-liquid chromatography; assay type: in vivo, human; details: after 2 and 4 months of supplementation
Method: as §1, §2, §3

[4] = background statement; cited from earlier work

SMILES	Retinal loci with significant increase in MPOD (macular pigment; 4 month change from baseline, loci 0.4°, 1.5°, 3°, 5°)	Mean increase in total MPOD (change from baseline) (macular pigment)	Serum HDL concentration [1]	Serum LDL concentration [1]	Serum VLDL concentration [1]	Serum total Cholesterol concentration [1]	Serum concentration of lutein, change from baseline [2]	Serum concentration of DHA, change from baseline [3]	Subjects without increase in MPOD (non responders) (macular pigment; 4 months of lutein supplementation)	Intermediate HDL subclass, group comparison ([1]; study end (4 mo))	Share transported in blood on HDL [4]	Share transported in blood on LDL [4]	Share transported in blood on VLDL [4]
CC/C=C\C/C=C\C/C=C\C/C=C\C/C=C\C/C=C\CCC(=O)O [DHA, cis-4,7,10,13,16,19-docosahexaenoic acid]	0.4°	0.037±0.068 OD	67 ± 3 mg cholesterol/dL	125 ± 5 mg cholesterol/dL	78 ± 14 mg cholesterol/dL	209 ± 5 mg cholesterol/dL							
CC1=C[C@H](O)CC(C)(C)[C@H]1/C=C/C(C)=C/C=C/C(C)=C/C=C/C=C(C)/C=C/C=C(C)/C=C/C1=C(C)C[C@@H](O)CC1(C)C [Lutein, lutein]		0.370±0.140 OD	70 ± 5 mg cholesterol/dL	113 ± 6 mg cholesterol/dL	75 ± 12 mg cholesterol/dL	199 ± 8 mg cholesterol/dL	significantly increased	No significant changes	Two of 14	significantly greater in the L group than in the LD group	about 53%	about 31%	about 16%
